The subject of experiment [1] is normal human keratinocytes in monolayer. The experiment in a line: hBD2 and hBD3 expression (RT-PCR, band intensity vs actin) in keratinocytes in monolayer. In kind it is cell-based. The settings on record: 100 ng/ml, 16 hours. On the procedure:
The normal human keratinocytes are cultivated in monolayer on 96-wells culture plates, in a defined medium without serum and enriched with calcium (final concentration 1.7 mM).
At 80% of confluence, the cells are placed in contact with a chemical stress, i.e. molecules which mimic a microbial attack, such as TNFα (100 ng/ml) or IFNγ (100 ng/ml), for 16 hours. Keratinocytes which are non-stressed, i.e. which are not placed in contact with the chemical substances mimicking a microbial attack, are used in a model of reconstructed epidermis.
After 16 hours, the supernatants are collected and the cells are dry frozen at −80° C. after a rinsing with PBS.
The total RNAs are extracted with the aid of a 96-wells fluo extraction kit on silica columns and are determined on a 96-wells spectrophotometer at 260 and 280 nm. The RNAs are diluted at 5 ng/μl.
The one-step qualitative RT-PCR is carried out on 50 ng of RNA (initial) in 96 wells, on actin, hBD2 and hBD3. The primers are used at 0.5 μM and are from the literature: hBD2sense: 5′-[…]-3′; hBD2antisense: 5′-GGAGCCCJTlCTGMTC CGCA-3′ (Harder J. et al., A peptide antibiotic from human skin. Nature 1997; 387: 861); hBD3sense: 5′-[…]-3′, hBD3 antisense: 5′-[…] […]-3′; actin sense: 5′-[…]-3′, actin antisense: 5′-[…]lTTC-3′ (Harder J. et al., Isolation and characterization of hBD3, a novel human inducible peptide antibiotic. J. Biol. Chem. 2001; 276: 5707-5713).
The samples are placed in a thermocycler and following a common program of amplification: 50° C., 30 mins; 94° C., 2 mins; (94° C., 30 secs; 60° C., 30 sec; 68° C., 30 sec) 32 cycles for the defensins and 30 cycles for the actin; 72° C., 10 min; 14° C., infinity.
After amplification, the products are mixed at the rate of 3 μl of products of amplification of actin+6 μl of products of amplification of hBD2+6 μl of products of amplification of hBD3. 5 μl of a mixture of filler buffer and water (2/3) are added and the final 20 μl are deposited on a pre-poured 2% agarose gel. The samples migrate in 30 minutes and the bands are visualized under UV in a black chamber and are photographed digitally.
(§1) The photographs of the gels are analyzed by an image treatment software which quantifies the intensity of the bands. The ratios of intensity of the hBD2/actin and hBD3/actin bands are compared on the one hand between the monolayer model and the 3D model (reconstructed epidermis) in a non-stressed condition, and, on the other hand, following the effect of a stress (cells treated with TNFβ or IFNγ).

The test system of experiment [2] is reconstructed epidermis (foreskin keratinocytes). The experiment in a line: hBD2 and hBD3 expression (RT-PCR, band intensity vs actin) in 3D reconstructed epidermis. In kind it is cell-based, human. The settings on record: 100 ng/ml, 24 hours. On the procedure: At the end of experimentation, the reconstructed epidermis are treated in the following manner:
1 sample undergoes no treatment (model comprising reference cells=negative control).
1 sample undergoes no treatment with the actives but undergoes various types of stress at the end of culture (model comprising stressed cells=positive control), e.g. incubation in the presence of TNFα at 100 ng/ml, IFN γ100 ng/ml.
1 sample undergoes the treatment with the active (1% in the culture medium for 24 hours) and then a stress (equivalent to the positive control).
The RNAs are diluted at 5 ng/μl and are treated as described above.
as §1

For the substance “IFNγ: molecule mimicking a microbial attack, used as stress”, in experiment [1], the “HBD2, ratio of intensity of the hBD2/actin bands” value amounted to 0.450 and the “HBD3, ratio of intensity of the hBD3/actin bands” value amounted to 0.370. Further, in experiment [2], the “HBD2, ratio of intensity of the hBD2/actin bands” value turned out to be 0.581 and the “HBD3, ratio of intensity of the hBD3/actin bands” value came out at 0.492.

Take TNFα: in experiment [1], the “HBD2, ratio of intensity of the hBD2/actin bands” value turned out to be 1.240 and the “HBD3, ratio of intensity of the hBD3/actin bands” value is recorded as 0.266. Moreover, in experiment [2], the “HBD2, ratio of intensity of the hBD2/actin bands” value was determined as 1.617 and the “HBD3, ratio of intensity of the hBD3/actin bands” value was found to be 0.546.

The record behind these values is patent publication US20040096815A1, “Method of identifying an eventual modification of at least one biological parameter making use of living cells which are subjected to a stress and living cells which are not subjected to this same stress” (COLETICA, priority 2002, published 2004).
